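GI50: concentration for 50% inhibition of growth. At the TGI there is no net growth.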
How the values were obtained:
Assay in all cases: growth of human tumour cells (NCI), 384-well format
[1] = test system: 786-0 renal
[2] = test system: A498 renal
[3] = test system: A549 NSCLC
[4] = test system: ACHN renal
[5] = test system: BT-549 breast
[6] = test system: CAKI-1 renal
[7] = test system: CCRF-CEM leukemia
[8] = test system: COLO 205 colon
[9] = test system: DU-145 prostate
[10] = test system: EKVX NSCLC
[11] = test system: HCC-2998 colon
[12] = test system: HCT-116 colon
[13] = test system: HCT-15 colon
[14] = test system: HL-60(TB) leukemia
[15] = test system: HOP-62 NSCLC
[16] = test system: HOP-92 NSCLC
[17] = test system: HS 578T breast
[18] = test system: HT29 colon
[19] = test system: IGROV1 ovarian
[20] = test system: K-562 leukemia
[21] = test system: KM12 colon
[22] = test system: LOX IMVI melanoma
[23] = test system: M14 melanoma
[24] = test system: MALME-3M melanoma
[25] = test system: MCF7 breast
[26] = test system: MDA-MB-231 breast
[27] = test system: MDA-MB-435 melanoma
[28] = test system: MDA-MB-468 breast
[29] = test system: MOLT-4 leukemia
[30] = test system: NCI-H226 lung
[31] = test system: NCI-H23 lung
[32] = test system: NCI-H322M lung
[33] = test system: NCI-H460 NSCLC
[34] = test system: NCI-H522 lung
[35] = test system: NCI/ADR-RES ovarian
[36] = test system: OVCAR-3 ovarian
[37] = test system: OVCAR-4 ovarian
[38] = test system: OVCAR-5 ovarian
[39] = test system: OVCAR-8 ovarian
[40] = test system: PC-3 prostate
[41] = test system: RPMI-8226 leukemia
[42] = test system: RXF 393 renal
[43] = test system: SF-268 CNS
[44] = test system: SF-295 CNS
[45] = test system: SF-539 CNS
[46] = test system: SK-MEL-2 melanoma
[47] = test system: SK-MEL-28 melanoma
[48] = test system: SK-MEL-5 melanoma
[49] = test system: SK-OV-3 ovarian
[50] = test system: SN12C renal
[51] = test system: SNB-19 CNS
[52] = test system: SNB-75 CNS
[53] = test system: SW-620 colon
[54] = test system: T-47D breast
[55] = test system: TK-10 renal
[56] = test system: U251 glioblastoma
[57] = test system: UACC-257 melanoma
[58] = test system: UACC-62 melanoma
[59] = test system: UO-31 renal

With `Cc1c(N)nc([C@H](CC(N)=O)NC[C@H](N)C(N)=O)nc1C(=O)N[C@H](C(=O)N[C@H](C)[C@@H](O)[C@H](C)C(=O)N[C@H](C(=O)NCCc1nc(-c2nc(C(=O)NCCC[S+](C)C)cs2)cs1)[C@@H](C)O)C(OC1OC(CO)C(O)C(O)C1OC1OC(CO)C(O)C(OC(N)=O)C1O)c1cnc[nH]1` (some centres not stated) the GI50 [1] was 0.945 µM, the GI50 [2] was 1.51 µM and the TGI [2] was 25.9 µM. For the same compound, the GI50 [3] was 1.65 µM, the TGI [3] was > 92.1 µM and the GI50 [4] was 0.164 µM. It also gave a TGI [4] of 0.929 µM, a GI50 [5] of 1.06 µM and a TGI [5] of 22.4 µM. The GI50 [6] was 1.43 µM, the TGI [6] was > 44.8 µM and the GI50 [7] was 2.08 µM. The TGI [7] was 6.72 µM, the GI50 [8] was 2.96 µM and the TGI [8] was 7.57 µM. The GI50 [9] was 1.71 µM, the TGI [9] was > 20.5 µM and the GI50 [10] was > 48.2 µM. The TGI [10] was > 100 µM, the GI50 [11] was 6.35 µM and the TGI [11] was 53.3 µM. The GI50 [12] was 0.071 µM, the TGI [12] was 19 µM and the GI50 [13] was 0.4 µM. It also gave a TGI [13] of 16.9 µM, a GI50 [14] of 2.66 µM and a TGI [14] of 7.29 µM. For the same compound, the GI50 [15] was 0.169 µM, the TGI [15] was 1.19 µM and the GI50 [16] was 0.648 µM. It also gave a TGI [16] of 23.6 µM, a GI50 [17] of 0.266 µM and a TGI [17] of 5.4 µM. For the same compound, the GI50 [18] was 16.9 µM, the TGI [18] was > 100 µM and the GI50 [19] was 3.19 µM. The TGI [19] was 43.6 µM, the GI50 [20] was 8.46 µM and the TGI [20] was > 79 µM. For the same compound, the GI50 [21] was 1.78 µM, the TGI [21] was 27.8 µM and the GI50 [22] was 0.57 µM. The TGI [22] was 12.3 µM, the GI50 [23] was 1.42 µM and the TGI [23] was 23.2 µM. The GI50 [24] was 18.2 µM, the TGI [24] was > 100 µM and the GI50 [25] was 10 µM. For the same compound, the TGI [25] was > 100 µM, the GI50 [26] was 31.2 µM and the TGI [26] was > 100 µM. The GI50 [27] was 71.3 µM, the TGI [27] was > 100 µM and the GI50 [28] was 0.97 µM. For the same compound, the TGI [28] was 4.28 µM, the GI50 [29] was 0.439 µM and the TGI [29] was 1.53 µM. The GI50 [30] was 0.778 µM, the TGI [30] was 9.52 µM and the GI50 [31] was 1.21 µM. The TGI [31] was 11.9 µM, the GI50 [32] was 26.1 µM and the TGI [32] was > 100 µM. The GI50 [33] was 0.331 µM, the TGI [33] was 14.6 µM and the GI50 [34] was 2.21 µM. The TGI [34] was 16.4 µM, the GI50 [35] was 0.273 µM and the TGI [35] was 5.9 µM. The GI50 [36] was 3.67 µM, the TGI [36] was 13.7 µM and the GI50 [37] was 13 µM. The TGI [37] was > 54.7 µM, the GI50 [38] was 6.43 µM and the TGI [38] was > 76 µM. For the same compound, the GI50 [39] was 0.41 µM, the TGI [39] was 21 µM and the GI50 [40] was 46.5 µM. The TGI [40] was > 100 µM, the GI50 [41] was 7.9 µM and the TGI [41] was > 100 µM. The GI50 [42] was 2.2 µM, the TGI [42] was 10.2 µM and the GI50 [43] was 0.6 µM. It also gave a TGI [43] of 8.37 µM, a GI50 [44] of 0.128 µM and a TGI [44] of 0.824 µM. The GI50 [45] was 0.234 µM, the TGI [45] was 4.56 µM and the GI50 [46] was 11.1 µM. The TGI [46] was 25.5 µM, the GI50 [47] was 43.7 µM and the TGI [47] was > 100 µM. It also gave a GI50 [48] of 0.211 µM, a TGI [48] of 1.17 µM and a GI50 [49] of 4.84 µM. The TGI [49] was > 64.7 µM, the GI50 [50] was 1.62 µM and the TGI [50] was 34.9 µM. The GI50 [51] was 6.76 µM, the TGI [51] was > 52 µM and the GI50 [52] was 1.32 µM. The TGI [52] was 6.43 µM, the GI50 [53] was 4.95 µM and the TGI [53] was > 100 µM. For the same compound, the GI50 [54] was 9.71 µM, the TGI [54] was > 82.5 µM and the GI50 [55] was 8.01 µM. The TGI [55] was > 42.1 µM, the GI50 [56] was 0.522 µM and the TGI [56] was 11.2 µM. The GI50 [57] was > 68 µM, the TGI [57] was > 100 µM and the GI50 [58] was 1.26 µM. For the same compound, the TGI [58] was 20 µM, the GI50 [59] was 2.08 µM and the TGI [59] was > 35.3 µM.

Reference: PubChem BioAssay (NCI)
